Values after ≈ are worked out from the molar mass of the structure shown. Starred links: 1 amine or outer side, 2 acyl side, 3 side chain; linkers in the order of their positions; H or OH if unused. Positions of bridges follow the written chain, without caps; N, C: chain ends. Non-standard residues stand in square brackets, D forms with d. Residues, ends and D or L forms follow the SMILES beside them. X1 = O=C([C@H](CCCCNCC=[*:3])N[*:1])[*:2]
How the values were obtained:
Staphylococcus aureus [1] = assay: Antibacterial activity against methicillin-resistant Staphylococcus aureus assessed as inhibition of bacterial growth incubated for 16 hrs by broth microdilution method; format: functional
Staphylococcus aureus [2] = assay: Antibacterial activity against Staphylococcus aureus BNCC 186335 assessed as inhibition of bacterial growth incubated for 16 hrs by broth microdilution method; format: functional
Listeria monocytogenes = assay: Antibacterial activity against Listeria monocytogenes assessed as inhibition of bacterial growth incubated for 16 hrs by broth microdilution method; format: functional
Pseudomonas aeruginosa = assay: Antibacterial activity against Pseudomonas aeruginosa BNCC 125486 assessed as inhibition of bacterial growth incubated for 16 hrs by broth microdilution method; format: functional
Escherichia coli [3] = assay: Antibacterial activity against Escherichia coli BNCC 133264 assessed as inhibition of bacterial growth incubated for 16 hrs by broth microdilution method; format: functional
Escherichia coli [4] = assay: Antibacterial activity against cephalosporin-resistant Escherichia coli BNCC 133264 assessed as inhibition of bacterial growth incubated for 16 hrs by broth microdilution method; format: functional
Erythrocyte = assay: Hemolytic activity against human RBC assessed as concentration required to cause 10% hemolysis; format: toxicity, cell-based
HEK-293T = assay: Cytotoxicity against human HEK293T cells assessed as cell survival rate at 8 to 128 Ug/ml incubated for 24 hrs by MTT assay relative to control; format: toxicity, cell-based; conditions: dose 8-128 µg/ml

CC[C@H](C)[C@H](NC(=O)[C@@H]1CCCCNC/C=C/CNCCCC[C@H](NC(=O)[C@H](CC(C)C)NC(=O)[C@@H](NC(=O)[C@H](CCCCN)NC(=O)CNC(=O)[C@H](Cc2ccccc2)NC(=O)[C@@H](N)Cc2ccccc2)C(C)C)C(=O)N[C@@H](CC(C)C)C(=O)N[C@@H]([C@@H](C)CC)C(=O)N[C@@H](CCCNC(=N)N)C(=O)N1)C(=O)N[C@@H](Cc1ccccc1)C(N)=O (H-FFGKVL[X1]LIR[X1]IF-NH2; staple (E) 7-11)
MIC (Staphylococcus aureus [1]): 32 mg/L (≈ 19.3 µM) | MIC (Staphylococcus aureus [2]): 16 mg/L (≈ 9.64 µM) | MIC (Listeria monocytogenes): 8 mg/L (≈ 4.82 µM) | MIC (Pseudomonas aeruginosa): > 128 mg/L | MIC (Escherichia coli [3]): 128 mg/L (≈ 77.1 µM) | MIC (Escherichia coli [4]): 128 mg/L (≈ 77.1 µM) | MHC (Erythrocyte): 16 µg/mL | Activity (HEK-293T): Toxic

CC[C@H](C)[C@H](NC(=O)[C@H](CCCCN)NC(=O)[C@@H]1CCCN1C(=O)[C@@H](NC(=O)[C@H](CC(C)C)NC(=O)[C@H](CCCCN)NC(=O)[C@H](CC(C)C)NC(=O)[C@@H](NC(=O)[C@H](CO)NC(=O)CNC(=O)[C@H](Cc1ccccc1)NC(=O)[C@@H](N)Cc1ccccc1)C(C)C)[C@@H](C)CC)C(=O)N[C@@H](CC(C)C)C(N)=O (H-FFGSVLKLIPKIL-NH2)
MIC (Staphylococcus aureus [1]): 2 mg/L (≈ 1.36 µM) | MIC (Staphylococcus aureus [2]): 2 mg/L (≈ 1.36 µM) | MIC (Listeria monocytogenes): 2 mg/L (≈ 1.36 µM) | MIC (Pseudomonas aeruginosa): > 128 mg/L | MIC (Escherichia coli [3]): 64 mg/L (≈ 43.4 µM) | MIC (Escherichia coli [4]): 32 mg/L (≈ 21.7 µM) | MHC (Erythrocyte): 64 µg/mL

CC[C@H](C)[C@H](NC(=O)[C@H](CCCCN)NC(=O)[C@H](CCCNC(=N)N)NC(=O)[C@@H](NC(=O)[C@H](CC(C)C)NC(=O)[C@H](CCCCN)NC(=O)[C@H](CC(C)C)NC(=O)[C@@H](NC(=O)[C@H](CCCCN)NC(=O)CNC(=O)[C@H](Cc1ccccc1)NC(=O)[C@@H](N)Cc1ccccc1)C(C)C)[C@@H](C)CC)C(=O)N[C@@H](Cc1ccccc1)C(N)=O (H-FFGKVLKLIRKIF-NH2)
MIC (Staphylococcus aureus [1]): 64 mg/L (≈ 39.8 µM) | MIC (Staphylococcus aureus [2]): 64 mg/L (≈ 39.8 µM) | MIC (Listeria monocytogenes): 8 mg/L (≈ 4.97 µM) | MIC (Pseudomonas aeruginosa): > 128 mg/L | MIC (Escherichia coli [3]): > 128 mg/L | MHC (Erythrocyte): 16 µg/mL

CC[C@H](C)[C@H](NC(=O)[C@H](CCCCN)NC(=O)[C@H](CC(N)=O)NC(=O)[C@H](CC(C)C)NC(=O)[C@@H](NC(=O)[C@H](CCCCN)NC(=O)[C@@H]1CCCN1)[C@@H](C)CC)C(=O)N[C@@H](CC(C)C)C(=O)NCC(=O)N[C@@H](CCCCN)C(=O)N[C@H](C(=O)N[C@@H](CC(C)C)C(=O)N[C@@H](CCCNC(=N)N)C(=O)N[C@@H](CC(C)C)C(=O)N[C@@H](C)C(=O)N[C@@H](C)C(=O)N[C@@H](C)C(=O)N[C@@H](Cc1ccccc1)C(=O)N[C@@H](CCCCN)C(N)=O)[C@@H](C)CC (H-PKILNKILGKILRLAAAFK-NH2)
MIC (Staphylococcus aureus [1]): 4 mg/L (≈ 1.9 µM) | MIC (Staphylococcus aureus [2]): 2 mg/L (≈ 0.949 µM) | MIC (Listeria monocytogenes): 4 mg/L (≈ 1.9 µM) | MIC (Pseudomonas aeruginosa): 4 mg/L (≈ 1.9 µM) | MIC (Escherichia coli [3]): 4 mg/L (≈ 1.9 µM) | MIC (Escherichia coli [4]): 4 mg/L (≈ 1.9 µM) | MHC (Erythrocyte): 16 µg/mL

CC[C@H](C)[C@H](NC(=O)[C@@H]1CCCCNC/C=C/CNCCCC[C@H](NC(=O)[C@@H]2CCCN2)C(=O)N[C@@H]([C@@H](C)CC)C(=O)N[C@@H](CC(C)C)C(=O)N[C@@H](CC(N)=O)C(=O)N1)C(=O)N[C@@H](CC(C)C)C(=O)NCC(=O)N[C@@H](CCCCN)C(=O)N[C@H](C(=O)N[C@@H](CC(C)C)C(=O)N[C@@H](CCCNC(=N)N)C(=O)N[C@@H](CC(C)C)C(=O)N[C@@H](C)C(=O)N[C@@H](C)C(=O)N[C@@H](C)C(=O)N[C@@H](Cc1ccccc1)C(=O)N[C@@H](CCCCN)C(N)=O)[C@@H](C)CC (H-P[X1]ILN[X1]ILGKILRLAAAFK-NH2; staple (E) 2-6)
MIC (Staphylococcus aureus [1]): 4 mg/L (≈ 1.85 µM) | MIC (Staphylococcus aureus [2]): 4 mg/L (≈ 1.85 µM) | MIC (Listeria monocytogenes): 4 mg/L (≈ 1.85 µM) | MIC (Pseudomonas aeruginosa): 128 mg/L (≈ 59.3 µM) | MIC (Escherichia coli [3]): 16 mg/L (≈ 7.41 µM) | MIC (Escherichia coli [4]): 16 mg/L (≈ 7.41 µM) | MHC (Erythrocyte): 16 µg/mL | Activity (HEK-293T): Toxic

CC(C)C[C@@H]1NC(=O)[C@H](C)NC(=O)[C@@H](NC(=O)[C@H](C)NC(=O)[C@H](C)NC(=O)CNC(=O)[C@H](CCCCN)NC(=O)[C@H](CC(C)C)NC(=O)[C@H](CC(C)C)NC(=O)[C@H](CC(=O)O)NC(=O)[C@H](CCCCN)NC(=O)[C@H](Cc2ccccc2)NC(=O)CN)CCCCNC/C=C/CNCCCC[C@@H](C(=O)N[C@H](C(=O)N[C@H](C(=O)N[C@@H](CC(C)C)C(=O)N[C@@H](Cc2ccccc2)C(N)=O)C(C)C)[C@@H](C)O)NC(=O)[C@H](C(C)C)NC1=O (H-GFKDLLKGAA[X1]ALV[X1]TVLF-NH2; staple (E) 11-15)
MIC (Staphylococcus aureus [1]): 8 mg/L (≈ 3.86 µM) | MIC (Staphylococcus aureus [2]): 2 mg/L (≈ 0.966 µM) | MIC (Listeria monocytogenes): 4 mg/L (≈ 1.93 µM) | MIC (Pseudomonas aeruginosa): 128 mg/L (≈ 61.8 µM) | MIC (Escherichia coli [3]): 8 mg/L (≈ 3.86 µM) | MIC (Escherichia coli [4]): 16 mg/L (≈ 7.73 µM) | MHC (Erythrocyte): 32 µg/mL | Activity (HEK-293T): Toxic

Source: ChEMBL document CHEMBL5154678, “Lysine Stapling Screening Provides Stable and Low Toxic Cationic Antimicrobial Peptides Combating Multidrug-Resistant Bacteria In Vitro and In Vivo” (J Med Chem, 2022)
